From PubChem BioAssay AID504685 (Sanford-Burnham Center for Chemical Genomics, 2011)
Activity calls are given as the source filed them. The rule behind the calls is not given here.

Target: Bcl-2-related protein A1 (Mus musculus) (UniProt Q07440)
Assay: off-target activity on mouse Bfl-1 – biochemical, counter-screen for UBC13 polyubiquitination inhibitor project, SAR follow-up (AID 504685)
Conditions: Bfl-1 counterscreen for UBC13 inhibitors

IC50 | SMILES
97 µM | Cc1ccc(OCC(O)CN2CCN(CCN3C(=O)c4cccc5cccc(c45)C3=O)CC2)c(C)c1 (stereo not drawn)
> 100 µM (inactive) | CCOc1ccc2nc(N(CCCN(C)C)C(=O)c3ccc(C(=O)c4ccccc4)cc3)sc2c1
68.5 µM | O=C1c2cccc3cccc(c23)C(=O)N1CC1CCN(CC(O)COc2ccc3ccccc3c2)CC1 (stereo not drawn)
> 100 µM (inactive) | O=C(CCCCCN1C(=O)c2ccccc2C1=O)NCc1ccccc1
> 100 µM (inactive) | Cc1cccc(OCC(O)CN2CCN(CCN3C(=O)c4cccc5cccc(c45)C3=O)CC2)c1C (stereo not drawn)
> 100 µM (inactive) | O=C(CCCCCN1C(=O)c2ccccc2C1=O)NCCc1nc2ccccc2[nH]1
> 100 µM (inactive) | COCCOC(=O)c1ccc(NC(=O)CCCCCN2C(=O)c3ccccc3C2=O)cc1
> 100 µM (inactive) | O=C(NCCCN1CCN(c2ccc(F)cc2)CC1)C1CCCN(c2ncnc3c2nc2n3CCCCC2)C1 (stereo not drawn)
> 100 µM (inactive) | CC1CN(S(=O)(=O)c2ccc(NC(=O)CCCCCN3C(=O)c4ccccc4C3=O)cc2)CC(C)O1 (stereo not drawn)
> 100 µM (inactive) | O=C(CCCCCN1C(=O)c2cccc3cccc(c23)C1=O)NCc1cccnc1
> 100 µM (inactive) | CN(C)CCCN(C(=O)c1ccc(S(=O)(=O)N2CCCC2)cc1)c1nc2ccc(Br)cc2s1
> 100 µM (inactive) | COC(=O)C1=C(NC(=O)CCCCCN2C(=O)c3ccccc3C2=O)SC2CCCC12 (stereo not drawn)
> 100 µM (inactive) | NNC(=O)c1ccc(CN2C(=O)c3cccc4cccc2c34)cc1
> 100 µM (inactive) | COc1cccc(OCC(O)CN2CCN(CCN3C(=O)c4cccc5cccc(c45)C3=O)CC2)c1 (stereo not drawn)
> 100 µM (inactive) | COc1ccc(NC(=O)CCCCCN2C(=O)c3cccc([N+](=O)[O-])c3C2=O)cc1
> 100 µM (inactive) | CCOc1cccc2sc(N(CCCN(C)C)C(=O)c3ccc(S(=O)(=O)N(C)Cc4ccccc4)cc3)nc12

The remaining lines, values behind:

SMILES | IC50
CN(C)CCCN(C(=O)c1ccc(S(=O)(=O)N2CCCCC2)cc1)c1nc2cc3c(cc2s1)OCO3 | > 100 µM (inactive)
O=C(NCC1CCN(Cc2ccc(F)cc2)CC1)C1CCCN(c2ncnc3c2nc2n3CCCCC2)C1 (stereo not drawn) | > 100 µM (inactive)
O=C1c2cccc3cccc(c23)C(=O)N1CCN1CCN(CC(O)COc2ccccc2)CC1 (stereo not drawn) | > 100 µM (inactive)
O=C(CCCCCN1C(=O)c2cccc3cccc(c23)C1=O)NCCO | > 100 µM (inactive)
O=C(CCCCCN1C(=O)c2ccccc2C1=O)Nc1ccc(S(=O)(=O)N2CCCCC2)cc1 | > 100 µM (inactive)
N#Cc1ccccc1Cn1c(=O)n(CCCC(=O)NC2CCN(Cc3ccccc3)CC2)c(=O)c2ccccc21 | > 100 µM (inactive)
O=C(CCCCCN1C(=O)c2ccccc2C1=O)Nc1ccc(S(=O)(=O)Nc2ncccn2)cc1 | > 100 µM (inactive)
Cc1cc(OCC(O)CN2CCN(CCN3C(=O)c4cccc5cccc(c45)C3=O)CC2)ccc1C(C)C (stereo not drawn) | > 100 µM (inactive)
O=C(C1CCN(c2ncnc3c2nc2n3CCCCC2)CC1)N1CCN(c2ccccc2)CC1 | > 100 µM (inactive)
O=C(NCCCN1CCN(c2ccccc2)CC1)C1CCCN(c2ncnc3c2nc2n3CCCCC2)C1 (stereo not drawn) | > 100 µM (inactive)
O=C1c2cccc3cccc(c23)N1Cc1ccc(F)cc1 | > 100 µM (inactive)
CC(=O)c1ccccc1OCC(O)CN1CCN(CCN2C(=O)c3cccc4cccc(c34)C2=O)CC1 (stereo not drawn) | 93.1 µM
Cc1cccc(C)c1NC(=O)Cn1c(=O)n(CCCC(=O)NC2CCN(Cc3ccccc3)CC2)c(=O)c2ccccc21 | > 100 µM (inactive)
O=C1c2cccc3cccc(c23)C(=O)N1CCN1CCN(CC(O)COc2ccc(C3CCCCC3)cc2)CC1 (stereo not drawn) | > 100 µM (inactive)
Cc1[nH]c2c(Cl)c(Cl)ccc2c1CCNC(=O)CCCCCN1C(=O)c2ccccc2C1=O | > 100 µM (inactive)
CN(C)CCCN(C(=O)c1ccc(S(=O)(=O)N(C)Cc2ccccc2)cc1)c1nc2cc3c(cc2s1)OCO3 | 81 µM
Cc1cc(NS(=O)(=O)c2ccc(NC(=O)CCCCCN3C(=O)c4ccccc4C3=O)cc2)nc(C)n1 | > 100 µM (inactive)
